This note sets out measurements from US12529692B2, “Live cell imaging dynamic BH3 profiling” (Dana-Farber Cancer Institute, Inc., priority 2019, dated 2026).

Common to all, as to type: cell-based
The test system of one assay is MMTV-PyMT-T1 cells. As to the kind of experiment: LCI-DBP on MMTV breast cancer PDX model. Particulars: MMTV-PyMT-T1 cells treated overnight, then BIM BH3 peptide 10 μM final; imaged 0-120 minutes; compared to undrugged (DMSO) cells; FIG. 3A. On the procedure: The plates with cells were stained with 10 μL per well of LCI-Staining Solution for 20 minutes at 37° C. in a 3307 Steri-Cult Incubator, Class 100 HEP. An EL406™ Combination Microplate Washer Dispenser was then used to aspirate the volume in the wells to 10 μL. The plates with cells were washed three times with LCI-Wash buffer to a final residual volume of 10 μL per well using the EL406™ Combination Microplate Washer Dispenser. The plate was then placed on an ImageXpress® Micro 4 High Content Screening System with the required settings, taking an image every two minutes. After two images, 10 μL of the selected LCI-DBP BIM peptide buffer(s) were added to the wells. The plate was then imaged for at most 2 hours.
As depicted, cells are plated on collagen-coated plates and allowed to incubate for 16-24 hours in the presence of a test agent. […] After all images are acquired, image analysis software is used to quantify differences in TMRE release between drug-treated cells and vehicle-treated cells. […]
Cells were imaged by live single-cell imaging at 0 minutes, 42 minutes, 50 minutes, 66 minutes, and 120 minutes following BH3 peptide addition (FIG. 3A). Nuclear staining was detected as a blue emission from Hoechst 33342, and mitochondrial transmembrane potential staining was detected as a […] emission from TMRE.

Assay [1] relates to Pancreatic 8902 (Panc8902) cell line. As to the kind of experiment: Live cell imaging dynamic BH3 profiling (LCI-DBP) on Pancreatic 8902 cell line.
Experimental: Cells were imaged by live single-cell imaging at 18 minutes, 40 minutes, 48 minutes, 58 minutes, and 120 minutes following BH3 peptide addition (FIG. 2A). Nuclear staining was detected as a blue emission from Hoechst 33342, and mitochondrial transmembrane potential staining was detected as a green emission from TMRE. […]
The test system of a further assay is cells of a sample. As to the kind of experiment: LCI-DBP example workflow (FIG. 1A), delta priming compared across treatments. To be noted: bar graph of FIG. 1A comparing different treatments; cells not specified. On the procedure: An example workflow of live cell imaging dynamic BH3 profiling (LCI-DBP) is depicted in FIG. 1A. As shown, in some embodiments, cells are plated in a well (e.g., a well of a multi-well plate). In some embodiments, the plated cells are contacted with a test agent or a control solution (e.g., a vehicle solution used with the test agent, such as water, buffer, or a solvent), and the test agent is incubated with the cells for a treatment period. In some embodiments, the treated cells are stained with desired markers for imaging (e.g., nuclear and/or mitochondrial markers). In some embodiments, the cells are then treated with a reagent for measuring MOMP, such as a potentiometric dye. In some embodiments, the stained and treated cells are then contacted with a BH3 peptide. Cells treated with BH3 peptide are imaged by live cell imaging to detect the reagent for measuring MOMP. […] In some embodiments, the loss in emission from the potentiometric dye is evaluated for cells treated with the test agent as compared with cells that were not treated with the test agent. In some embodiments, the difference in emission between treated and untreated cells is determined to obtain a parameter referred to herein as delta priming. Image analysis software, or any suitable algorithm known to one skilled in the art, may be used to determine the difference in emission, or it may be determined manually. […]

As to `CO[C@H]1/C=C\C=C(/C)C(=O)NC2=CC(=O)C(NCCN(C)C)=C(C[C@@H](C)C[C@H](OC)[C@H](O)[C@@H](C)/C=C(\C)[C@@H]1OC(N)=O)C2=O` [17-DMAG], the “loss in mitochondrial potential, detected as loss in TMRE emission over time” value in the assay with MMTV-PyMT-T1 cells is “observable accelerated loss in mitochondrial potential”.

`Cc1c(-c2ccc(N3CCc4cccc(C(=O)Nc5nc6ccccc6s5)c4C3)nc2C(=O)O)cnn1CC12CC3CC(CC(C3)C1)C2` [A1331852]: the “loss in mitochondrial potential, detected as loss in TMRE emission over time” value in assay [1] (Panc8902 cells treated overnight, then BIM BH3 peptide 10 μM final, imaged 18-120 minutes, compared to undrugged (DMSO) cells, FIG. 2A) is “observable accelerated loss in mitochondrial potential”.

As for `CC1(C)CCC(c2ccc(Cl)cc2)=C(CN2CCN(c3ccc(C(=O)NS(=O)(=O)c4ccc(N[C@H](CCN5CCOCC5)CSc5ccccc5)c(S(=O)(=O)C(F)(F)F)c4)cc3)CC2)C1` [Navitoclax], the “half-time of TMRE loss in single cells (measurement of apoptotic priming)” value in assay [1] (Panc8902 cells, drug 1 μM overnight, BIM BH3 peptide 1 μM final, monitored over 120 minutes, versus DMSO, FIG. 5C) is “decrease in the half-time of TMRE loss”. Besides, the delta priming entry in the assay with cells of a sample is “highest value for delta priming”.
